Patent US10538561B2, “Peptide for treating inflammatory diseases” (priority 2015, dated 2020)
pIC50: −log10 of the molar value. Counter-ions that a name gives are not always drawn. Like-named read-outs stand apart in the source and are kept apart here. Marks after values point to notes of the source that are not given here.

What was measured:
[1] = tested on: Human Keratinocytes (HaCaT); experiment: Cell viability (MTT assay) in HaCaT; type: cell-based; settings: human
Method: (§1) Cell Lines/Cells: Human Keratinocytes (HaCaT); Human melanoma (SK-MEL-28); Human PBMCs. Test Item: IS181 Treatment regimen: Single addition—24 h, ^#Multiple additions (3)−72 h; Concentration range: 1 ng/ml-2 mg/ml (triplicate wells); Sera Condition: […] Method of estimation: MTT assay. […] Positive control: Triton-X-100, Doxorubicin Hydrochloride.

[2] = tested on: Human melanoma (SK-MEL-28); experiment: Cell viability (MTT assay) in SK-MEL-28; type: cell-based; settings: human
Method: as §1

[3] = tested on: HaCaT (Human keratinocyte) cell line; experiment: Mitochondrial membrane potential by JC-1 assay; type: cell-based
Method: (§2) For testing Apoptosis the Human Keratinocytes (HaCaT) cell line has been employed. The growth conditions are DMEM containing 1% FBS. […] Test concentration range is IS181 is tested at the highest (Qualitative analysis) effective concentrations selected on the basis of Quantitative JC-1 assay. The method of estimation is Mitochondrial membrane depolarization by JC-1 assay (Early apoptosis), LDH enzyme release (Necrosis). Treatment regimen & time points are JC-1 assay—Single addition, 20 h; LDH assay—Single addition, 24 h; Positive control: Triton-X-100, Doxorubicin-hydrochloride
Quantitative effect on Δψm (Red fluorescence/Green fluorescence) in HaCaT cells post 20 hours of treatment. […] Evaluation (Qualitative and quantitative) of differential JC-1 staining in treated cells after 20 h on incubation with the test peptides.

[4] = tested on: HaCaT (Human keratinocyte); experiment: LDH enzyme release assay; type: cell-based
Method: as §2
End-point: Percentage increase in LDH activity in treated cells with respect to untreated.

[5] = tested on: TNF-α; experiment: LPS stimulated TNF-α secretion in RAW264.7; type: cell-based, Mouse; settings: RAW264.7 + LPS
Method: (§3) Effect on pro-inflammatory cytokines against LPS stimulation: TNF-α; IL-6; IL-1-β: Cell lines: Murine macrophage cell line (RAW264.7); test item: IS181; experimental steps: pretreatment of cells with TI for 2 hours; stimulation with LPS (100 ng/ml) for 24 hours; supernatant collection for cytokine analysis; concentration range: o.1 μg/ml-500 μg/ml (duplicate wells); Cytokines: TNF-α; IL-6; IL-1-β; Method of estimating cytokines: ELISA; positive control: dexamethasone.
(§4) Cell line: RAW264.7 (Mouse macrophages); TI treatment regimen: Pretreatment for 2 h; TI Concentration range: 0.1 μg/ml-500 μg/ml (duplicate wells); LPS stimulation: 100 ng/ml; Time point for supernatants collection: 24 h; Method of estimation: ELISA; Positive control: Dexamethasone

[6] = tested on: IL-6; experiment: LPS stimulated IL-6 secretion in RAW264.7; type: cell-based, Mouse; settings: RAW264.7 + LPS
Method: as §3, §4

[7] = tested on: IL-1-β; experiment: LPS stimulated IL-1-β secretion in RAW264.7; type: cell-based, Mouse; settings: RAW264.7 + LPS
Method: as §3, §4

[8] = tested on: TNF-α; experiment: TNF-α level in TNF-α stimulated HaCaT; type: cell-based, Human
Method: (§5) Effect on pro-inflammatory cytokines against TNF-α/LPS+PMA stimulation: TNF-α; IFN-γ; TARC; TSLP; IL-6; IL-8: Cell lines: Human keratinocytes (HaCaT); test item (TI); IS181; experimental steps: pre-treatment of cells with TI for 2 hours; stimulation with TNF-α: 20 ng/ml; stimulation with LPS+PMA-10 μg/ml LPS+40 ng/ml PMA; supernatant collection for cytokine analysis after 24 hours; concentration range: 0.1 μg/ml-100 μg/ml (duplicate wells); cytokines: TNF-α; IFN-γ; TARC; TSLP; IL-6; IL-8. Method of estimating cytokines: ELISA; positive control: dexamethasone.
(§6) Cell line: HaCaT (Human Keratinocytes); TI Treatment regimen: Pretreatment for 2 h; TI Concentration range: 0.1 μg/ml-100 μg/ml (duplicate wells); TNF-α stimulation: 20 ng/ml; LPS+PMA stimulation: 10 μg/ml LPS+40 ng/ml PMA; Time point for supernatants collection: 24 h; Method of estimation: ELISA; Positive control: Dexamethasone

[9] = tested on: IFN-γ; experiment: TNF-α stimulated IFN-γ secretion in HaCaT; type: cell-based, Human; settings: HaCaT + TNF-α
Method: as §5, §6

[10] = tested on: TARC; experiment: TNF-α stimulated TARC secretion in HaCaT; type: cell-based, Human; settings: HaCaT + TNF-α
Method: as §5, §6

[11] = tested on: IL-6; experiment: LPS+PMA stimulated IL-6 secretion in HaCaT; type: cell-based, Human
Method: as §5, §6

[12] = tested on: IL-8; experiment: LPS+PMA stimulated IL-8 secretion in HaCaT; type: cell-based, Human; settings: HaCaT + LPS + PMA
Method: as §5, §6

[13] = tested on: TSLP; experiment: LPS+PMA stimulated TSLP secretion in HaCaT; type: cell-based, Human; settings: HaCaT + LPS + PMA
Method: as §5, §6

[14] = in vitro; settings: human, HaCaT keratinocytes
Method: (§7) The cells were then incubated for 72 hours. Percentage cytotoxicity was determined using MTT assay.

[15] = tested on: Human Keratinocytes (HaCaT); experiment: In vitro combination methotrexate and IS181 (MTT); settings: for 50% Inhibition (concentration of MTX): 72 h
Method: as §7

[16] = tested on: VEGF; experiment: VEGF inhibition in keratinocytes (ELISA); type: cell-based, Human; settings: HaCaT, 24 h
Method: Cell lines: Human Keratinocytes (HaCaT); test item: IS181; treatment regimen: single addition—24 hours; concentration range: 0.1 μg/ml-100 μg/ml. […] Cells were serum-starved for another 24 hours (0% FBS). Cells were treated with IS181 for 24 hours. Supernatants were collected and stored at −20° C. till analysed. Levels of VEGF were analysed in supernatants by ELISA. Percent inhibition of VEGF secretion was calculated with reference to untreated levels. Positive control: curcumin; retinoic acid (at non-cytotoxic concentrations).

## COc1cccc2c1C(=O)c1c(O)c3c(c(O)c1C2=O)C[C@@](O)(C(=O)CO)C[C@@H]3O[C@H]1C[C@H](N)[C@H](O)[C@H](C)O1 [Doxorubicin, Doxorubicin Hydrochloride, reference compound]
[1]; 24 h
  cytotoxicity: up to 48%
[1]; 72 h
  cytotoxicity: > 88%
[2]
  cytotoxicity: up to 40%
[3]; 0.1 μM
  Green fluorescence intensity (RFU): 11.5 ± 0.71 RFU
  Red fluorescence intensity (RFU): ^#106.17 ± 15.32 ^ RFU
  Red fluorescence intensity/Green fluorescence intensity: 9.23
[3]; 1 μM
  Green fluorescence intensity (RFU): 11.5 ± 0.71 RFU
  Red fluorescence intensity (RFU): 93.25 ± 22.98 RFU
  Red fluorescence intensity/Green fluorescence intensity: 8.11
[3]; 10 μM
  Green fluorescence intensity (RFU): 9.83 ± 4.48 RFU
  Red fluorescence intensity (RFU): 49.83 ± 1.65 RFU
  Red fluorescence intensity/Green fluorescence intensity: 5.07
[4]; 0.1 μM
  % Increase with respect to untreated (LDH): −4.78%
  LDH Activity (mU/ml): 60.23 mU/ml
[4]; 1 μM
  % Increase with respect to untreated (LDH): −16.43%
  LDH Activity (mU/ml): 52.87 mU/ml
[4]; 10 μM
  % Increase with respect to untreated (LDH): ***125.92%
  LDH Activity (mU/ml): 142.92 mU/ml

## C[C@@H]1C[C@H]2[C@@H]3CCC4=CC(=O)C=C[C@]4(C)[C@@]3(F)[C@@H](O)C[C@]2(C)[C@@]1(O)C(=O)CO [Dexamethasone, reference compound]
[5]; 0.5 μg /ml
  TNF-α % decrease with respect to LPS: 54.1%
  TNF-α Conc (pg/ml): 451.7*** pg/ml
[5]; 1 μg /ml
  TNF-α % decrease with respect to LPS: 70.4%
  TNF-α Conc (pg/ml): 291.8*** pg/ml
[5]; 10 μg/ml
  TNF-α % decrease with respect to LPS: 71.2%
  TNF-α Conc (pg/ml): 283.1*** pg/ml
[6]; 0.5 μg /ml
  IL-6 % decrease with respect to LPS: 45.9%
  IL-6 Conc (pg/ml): 567.6** pg/ml
[6]; 1 μg /ml
  IL-6 % decrease with respect to LPS: 61.3%
  IL-6 Conc (pg/ml): 405.9*** pg/ml
[6]; 10 μg/ml
  IL-6 % decrease with respect to LPS: 72.3%
  IL-6 Conc (pg/ml): 291.2*** pg/ml
[7]; 0.5 μg /ml
  IL-1-β % decrease with respect to LPS: 53.6%
  IL-1-β Conc (pg/ml): 9.6* pg/ml
[7]; 1 μg /ml
  IL-1-β % decrease with respect to LPS: 44.6%
  IL-1-β Conc (pg/ml): 11.4* pg/ml
[7]; 10 μg/ml
  IL-1-β % decrease with respect to LPS: 39.0%
  IL-1-β Conc (pg/ml): 12.6* pg/ml
[8]; 1 μM
  TNF-α % decrease with respect to TNF-α: 17.6%
  TNF-α Conc: 17423.9 pg/mL
[8]; 10 μM
  TNF-α % decrease with respect to TNF-α: 31.2%
  TNF-α Conc: 14536.0 pg/mL
[8]; 25 μM
  TNF-α % decrease with respect to TNF-α: 4.7%
  TNF-α Conc: 20138.0 pg/mL
[9]; 1 μM
  IFN-γ % decrease with respect to TNF-α: 34.5%
  IFN-γ Conc (pg/ml): 31.2*** pg/ml
[9]; 10 μM
  IFN-γ % decrease with respect to TNF-α: 25.4%
  IFN-γ Conc (pg/ml): 35.5** pg/ml
[9]; 25 μM
  IFN-γ % decrease with respect to TNF-α: 31.2%
  IFN-γ Conc (pg/ml): 32.8** pg/ml
[10]; 1 μM
  TARC % decrease with respect to TNF-α: 13.2%
  TARC Conc: 52.5 pg/mL
[10]; 10 μM
  TARC % decrease with respect to TNF-α: 13.5%
  TARC Conc: 52.3 pg/mL
[10]; 25 μM
  TARC % decrease with respect to TNF-α: 13.5%
  TARC Conc: 52.3 pg/mL
[11]; 1 μM
  IL-6 % decrease with respect to LPS + PMA: 100.0%
  IL-6 Conc (pg/ml): 0.0*** pg/ml
[11]; 10 μM
  IL-6 % decrease with respect to LPS + PMA: 94.8%
  IL-6 Conc (pg/ml): 0.8*** pg/ml
[11]; 25 μM
  IL-6 % decrease with respect to LPS + PMA: 84.2%
  IL-6 Conc (pg/ml): 2.4*** pg/ml
[12]; 1 μM
  IL-8 % decrease with respect to LPS + PMA: 65.1%
  IL-8 Conc (pg/ml): 136.9*** pg/ml
[12]; 10 μM
  IL-8 % decrease with respect to LPS + PMA: 72.6%
  IL-8 Conc (pg/ml): 107.4*** pg/ml
[12]; 25 μM
  IL-8 % decrease with respect to LPS + PMA: 67.9%
  IL-8 Conc (pg/ml): 125.7*** pg/ml
[13]; 1 μM
  TSLP % decrease with respect to LPS + PMA: 46.4%
  TSLP Conc (pg/ml): 66.6** pg/ml
[13]; 10 μM
  TSLP % decrease with respect to LPS + PMA: 41.9%
  TSLP Conc (pg/ml): 72.1** pg/ml
[13]; 25 μM
  TSLP % decrease with respect to LPS + PMA: 44.7%
  TSLP Conc (pg/ml): 68.7** pg/ml

## CN(Cc1cnc2nc(N)nc(N)c2n1)c1ccc(C(=O)N[C@@H](CCC(=O)O)C(=O)O)cc1 [MTX, methotrexate]
[14]
  cytotoxicity at 72 h, 0.01 µM: 12.3%
  cytotoxicity at 72 h, 0.1 µM: 1.9%
  cytotoxicity at 72 h, 0.25 µM: 21.3%
  cytotoxicity at 72 h, 0.5 µM: 23.9%
  cytotoxicity at 72 h, 1 µM: 27.7%
  cytotoxicity at 72 h, 5 µM: 22%
[15]; with IS181 10 μg/ml
  50% Inhibition (concentration of MTX): 50% inhibition was still not achieved
[15]; with IS181 50 μg/ml
  50% Inhibition (concentration of MTX): 50% inhibition was still not achieved
[15]; read-out: 50% Inhibition (concentration of MTX), 72 h, MTX Alone
  pIC50: < 5.30
[15]; read-out: 50% Inhibition (concentration of MTX), 72 h, with IS181 10 μg/ml
  pIC50: < 5.30
[15]; read-out: 50% Inhibition (concentration of MTX), 72 h, with IS181 50 μg/ml
  pIC50: < 5.30
[15]; read-out: 50% Inhibition (concentration of MTX), 72 h, with IS181 500 μg/ml
  pIC50: 5.30 to 6.00
[15]; read-out: 50% Inhibition (concentration of MTX), 72 h, with IS181 1000 μg/ml
  pIC50: 8.00
[15]; read-out: 50% Inhibition (concentration of MTX), 72 h, with IS181 2000 μg/ml
  pIC50: > 8.00
[15]; read-out: 50% Inhibition (concentration of MTX), 72 h, with IS181 5000 μg/ml
  pIC50: > 8.00

## CC1=C(/C=C/C(C)=C/C=C/C(C)=C/C(=O)O)C(C)(C)CCC1 [RA, retinoic acid, reference compound]
[16]; RA 1 μM
  Conc. of VEGF (pg/ml): 2775.1* pg/ml
[16]; RA 10 μM
  Conc. of VEGF: 2982.4 pg/mL
[16]; Homo sapiens, RA 1 μM, read-out: % Inhibition of VEGF wrt untreated (basal) levels
  inhibition at 1 µM: 22.8%
[16]; Homo sapiens, RA 10 μM, read-out: % Inhibition of VEGF wrt untreated (basal) levels
  inhibition at 10 µM: 17%
